Measured values: patent US20220017572A1, “GEMINOID LIPOPEPTIDE COMPOUNDS AND THEIR USES” (Erasmus University Medical Center Rotterdam, priority 2016, published 2022)
Non-standard residues stand in square brackets, D forms with d. Residues, ends and D or L forms follow the SMILES beside them. C16 = C16 alkyl chain at peptide end (geminoid)

Assays:
DENV2 protease replicon = DENV2 protease replicon assay; assay type: cell-based; conditions: lowest concentration with observed activity in replicon assay
DENV2 protease = target: T1, DENV2 protease (Dengue virus type 2, UniProt P14340); assay: DENV2 protease biochemical assay; conditions: for % Inhibition at 50 μM (2) / inhibition at 50 µM: 50 μM inhibitor
T1 construct: The active site of the dengue protease is in the N-terminal part of NS3
T1 sequence (P14340 1476-1653): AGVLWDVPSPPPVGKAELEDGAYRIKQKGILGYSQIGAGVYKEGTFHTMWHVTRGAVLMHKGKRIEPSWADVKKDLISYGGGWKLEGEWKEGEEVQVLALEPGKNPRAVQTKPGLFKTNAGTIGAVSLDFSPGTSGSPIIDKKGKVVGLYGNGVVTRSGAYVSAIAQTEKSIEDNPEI
T1 sequence (P14340 1398-1437): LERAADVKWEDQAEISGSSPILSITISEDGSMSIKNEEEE

dengue 2 protease [1] = target: T2, dengue 2 protease (Dengue virus type 2, UniProt P14340); assay: Dengue 2 protease inhibition in presence of Triton X-100 (detergent test, Nature Protocol); assay type: biochemical, dengue 2 virus; conditions: 0.05% Triton X-100; for Activity with 0.05% Triton: initial activity in UAF/min
T2 construct: The active site of the dengue protease is in the N-terminal part of NS3
T2 sequence (P14340 1476-1653): as the sequence (P14340 1476-1653) above
Description: A further investigation of the interactions of the geminoid inhibitors with biological membranes and with membrane-bound proteases is needed. […] The preparation and tests of peptides symmetrically, asymmetrically and singly alkylated with saturated, short (C6), and unsaturated (C18:1) alkyl tails are in progress.

dengue 2 protease [2] = target: T2, dengue 2 protease; assay: Dengue 2 protease inhibition, hydrolysis of Z-RR-MCA; assay type: biochemical, dengue 2 virus; parameters: Activity with inhibitors: unit not given here; conditions: for Activity with inhibitors: 10 μM Z-RR-MCA, pH 9.0, 37° C., initial activity in UAF/min
Protocol: The active site of the dengue protease is in the N-terminal part of NS3 which is also a serine protease with catalytic triad Asp79-His51-Ser135, but requires […] (CF40) for activity; the inhibition reported here was studied on a […] (CF40-GGGGSGGGG-NS3; (SEQ ID NO:54)) which has also been structurally characterized [Erbel et al., 2006; Luo et al. 2008].
Substrate was added in a concentration 10 times the Km, and the inhibitor compounds of type C (C16-KGnK-C16, C16-KAnK-C16, and C16-RAnR-C16) were added in increasing concentrations (1.0, 5.0, 10.0, 20.0, 40.0 μL) from a stock solution of 2 mg in 1 mL DMSO. The residual activity was measured in a Hitachi F2500 spectrofluorimeter, and plots were fitted using the Grafit® software (Erithracus Software, Horley, Surrey, UK). All the assays were calculated by the Morrison equation for competitive inhibition (eq. 1, [Morrison, 1969]). The amount of substrate used for the tight binding titration experiments follow all the requirements, where [S]<<Km for all enzymes, so the Kiapp=Ki.
Range of Proteases Inhibited by Geminoids, Determination of Ki with Z-RR-MCA (Dengue 2 Protease) and Ac-RVRR-MCA (Furin) (SEQ ID NO:60).

Molecule	Replicon activity [μM] (1) (DENV2 protease replicon)	% Inhibition at 50 μM (2) (DENV2 protease)	inhibition at 50 µM (DENV2 protease)	IC50 (DENV2 protease)	further results
C16-AKAKG-C16: geminoid in shorthand Cp-Zn-Cq, peptide SEQ ID NO: 87	3.0 µM	102.3%			
CCCCCCCCCCCCCCCCNC(=O)[C@@H](CO)NC(=O)[C@@H](CCCCN)NC(=O)[C@@H](C)NC(=O)[C@@H](CCCCN)NC(=O)[C@@H](CC(C)C)NC(=O)CCCCCCCCCCCCCCC [C16-D-LKAKS-C16] (HELM PEPTIDE1{[CCCCCCCCCCCCCCCC(=O)[*:2]].[dL].[dK].[dA].[dK].[dS].[CCCCCCCCCCCCCCCCN[*:1]]}$$$$V2.0)	3.0 µM		97.4%		
C16-D-AKAK-L-S-C16: geminoid in shorthand Cp-Zn-Cq, D-AKAK with L-S, SEQ ID NO: 89 (C16-[dA][dK][dA][dK]S-C16)	3.0 µM	108.0%			
CCCCCCCCCCCCCCCCNC(=O)[C@H](CO)NC(=O)[C@H](CCCCN)NC(=O)[C@H](C)NC(=O)[C@H](CCCCN)NC(=O)[C@H](CC(C)C)NC(=O)CCCCCCCCCCCCCCC [C16-LKAKS-C16] (HELM PEPTIDE1{[CCCCCCCCCCCCCCCC(=O)[*:2]].L.K.A.K.S.[CCCCCCCCCCCCCCCCN[*:1]]}$$$$V2.0)	3.0 µM		108%	300 nM	
CCCCCCCCCCCCCCCCNC(=O)[C@H](CCCCN)NC(=O)[C@H](CCC(N)=O)NC(=O)[C@H](CCCNC(=N)N)NC(=O)[C@H](C)NC(=O)CCCCCCCCCCCCCCC [C16-ARQK-C16] (HELM PEPTIDE1{[CCCCCCCCCCCCCCCC(=O)[*:2]].A.R.Q.K.[CCCCCCCCCCCCCCCCN[*:1]]}$$$$V2.0)	5.0 µM		95.7%	300 nM	
C16-LKAKG-C16: geminoid in shorthand Cp-Zn-Cq, peptide SEQ ID NO: 88	3.0 µM	98.4%			
C16-AAQK-C16: geminoid in shorthand Cp-Zn-Cq, peptide SEQ ID NO: 78	5.0 µM	26.8%			
C16-AKAK-C16: geminoid in shorthand Cp-Zn-Cq, peptide SEQ ID NO: 74	3.0 µM	103.7%			
CCCCCCCCCCCCCCCCNC(=O)[C@H](CCCNC(=N)N)NC(=O)[C@H](C)NC(=O)[C@H](CCCNC(=N)N)NC(=O)CCCCCCCCCCCCCCC [C16RARC16, n-C15H31C(O)-Arg-Ala-Arg-(n-C16H33).2TFA]					% recovery in presence of Triton (dengue 2 protease [1]; 5 μM of inhibitor): 52%; Activity with 0.05% Triton (dengue 2 protease [1]; 5 μM of inhibitor): 105; Ki (dengue 2 protease [2]): 3100 nM; Activity with inhibitors (dengue 2 protease [2]; 5 μM of inhibitor): 27
CCCCCCCCCCCCCCCCNC(=O)[C@H](CCCCN)NC(=O)[C@H](CCC(N)=O)NC(=O)[C@H](C)NC(=O)[C@H](CCCNC(=N)N)NC(=O)CCCCCCCCCCCCCCC [C16-RAQK-C16] (HELM PEPTIDE1{[CCCCCCCCCCCCCCCC(=O)[*:2]].R.A.Q.K.[CCCCCCCCCCCCCCCCN[*:1]]}$$$$V2.0)	10.0 µM		102%	600 nM	
CCCCCCCCCCCCCCCCNC(=O)[C@H](CCCNC(=N)N)NC(=O)[C@H](C)NC(=O)[C@H](C)NC(=O)[C@H](C)NC(=O)[C@H](CCCNC(=N)N)NC(=O)CCCCCCCCCCCCCCC [C16RA3RC16, n-C15H31C(O)-Arg-(Ala)3-Arg-(n-C16H33).2TFA] (HELM PEPTIDE1{[CCCCCCCCCCCCCCCC(=O)[*:2]].R.A.A.A.R.[CCCCCCCCCCCCCCCCN[*:1]]}$$$$V2.0)					% recovery in presence of Triton (dengue 2 protease [1]; 15 μM of inhibitor): 50%; Activity with 0.05% Triton (dengue 2 protease [1]; 15 μM of inhibitor): 124; Ki (dengue 2 protease [2]): 1300 nM; Activity with inhibitors (dengue 2 protease [2]; 15 μM of inhibitor): 55
CCCCCCCCCCCCNC(=O)[C@H](CCCCN)NC(=O)[C@H](CCCCN)NC(=O)[C@H](CCCCN)NC(=O)[C@H](C)NC(=O)CCCCCCCCCCC [C12-AKKK-C12] (HELM PEPTIDE1{[CCCCCCCCCCCC(=O)[*:2]].A.K.K.K.[CCCCCCCCCCCCN[*:1]]}$$$$V2.0)	0.1 µM		98.5%	300 nM	
CCCCCCCCCCCCNC(=O)[C@H](CCCCN)NC(=O)[C@H](CCCCN)NC(=O)[C@H](CCCCN)NC(=O)[C@H](CC(C)C)NC(=O)CCCCCCCCCCC [C12-LKKK-C12] (HELM PEPTIDE1{[CCCCCCCCCCCC(=O)[*:2]].L.K.K.K.[CCCCCCCCCCCCN[*:1]]}$$$$V2.0)	0.1 µM		102%	300 nM	
CCCCCCCCCCCCCCCCNC(=O)[C@H](CCCCN)NC(=O)[C@H](CCCCN)NC(=O)[C@H](CCCCN)NC(=O)[C@H](Cc1ccccc1)NC(=O)CCCCCCCCCCCCCCC [C16-FKKK-C16] (HELM PEPTIDE1{[CCCCCCCCCCCCCCCC(=O)[*:2]].F.K.K.K.[CCCCCCCCCCCCCCCCN[*:1]]}$$$$V2.0)	5.0 µM		95.8%	200 nM	
